Converted amounts (≈) assume the structure as drawn.
What was measured:
Pseudomonas aeruginosa [1] = test: Antimicrobial activity against wild type Pseudomonas aeruginosa PA01 after 16 to 20 hrs by 2-fold microbroth dilution method; type: functional
[2] = molecular target: T1, UDP-3-O-acyl-N-acetylglucosamine deacetylase (Pseudomonas aeruginosa (strain ATCC 15692 / PAO1 / 1C / PRS 101 / LMG12228), UniProt P47205); test: Inhibition of Pseudomonas aeruginosa LpxC expressed in Escherichia coli using UDP-3-O-N-acetylglucosamine substrate measured after 30 mins by mass spectrometry
T1 sequence (P47205 whole entry): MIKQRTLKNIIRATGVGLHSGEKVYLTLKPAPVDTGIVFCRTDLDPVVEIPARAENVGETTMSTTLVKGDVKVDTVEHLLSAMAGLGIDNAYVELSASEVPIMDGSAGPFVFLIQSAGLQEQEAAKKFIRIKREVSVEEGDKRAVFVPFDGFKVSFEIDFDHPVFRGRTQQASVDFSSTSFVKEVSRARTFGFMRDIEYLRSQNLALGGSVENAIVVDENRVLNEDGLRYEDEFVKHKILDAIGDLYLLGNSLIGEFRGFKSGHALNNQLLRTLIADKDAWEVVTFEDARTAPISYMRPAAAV

Pseudomonas aeruginosa [3] = test: Antimicrobial activity against Pseudomonas aeruginosa PA3919 with (delta(mexAB-OprM)delta(mexXY)delta(MexZ) phenotype after 16 to 20 hrs by 2-fold microbroth dilution method; type: functional
Acinetobacter sp. = test: Antimicrobial activity against Acinetobacter sp. after 16 to 20 hrs by 2-fold microbroth dilution method; type: functional
Pseudomonas aeruginosa [4] = test: microbe, parasite or virus in culture
Description: Antimicrobial activity against Pseudomonas aeruginosa after 16 to 20 hrs by 2-fold microbroth dilution method

Klebsiella pneumoniae = test: microbe, parasite or virus in culture
Description: Antimicrobial activity against Klebsiella pneumoniae after 16 to 20 hrs by 2-fold microbroth dilution method

Klebsiella aerogenes = test: microbe, parasite or virus in culture
Description: Antimicrobial activity against Enterobacter aerogenes after 16 to 20 hrs by 2-fold microbroth dilution method

Citrobacter freundii = test: microbe, parasite or virus in culture
Description: Antimicrobial activity against Citrobacter freundii after 16 to 20 hrs by 2-fold microbroth dilution method

Escherichia coli = test: microbe, parasite or virus in culture
Description: Antimicrobial activity against Escherichia coli after 16 to 20 hrs by 2-fold microbroth dilution method

| Compound | MIC (Pseudomonas aeruginosa [1]) | IC50 [2] | MIC (Pseudomonas aeruginosa [3]) | MIC90 (Acinetobacter sp.) | MIC90 (Pseudomonas aeruginosa [4]) | MIC90 (Klebsiella pneumoniae) | MIC90 (Klebsiella aerogenes) | MIC90 (Citrobacter freundii) | MIC90 (Escherichia coli) |
| --- | --- | --- | --- | --- | --- | --- | --- | --- | --- |
| Cc1cc(C)cc(-c2ccn(CC[C@](C)(C(=O)NO)S(C)(=O)=O)c(=O)c2)c1 | 2 µg/mL (≈ 5.1 µM) | 5.3 nM | 0.125 µg/mL (≈ 0.318 µM) |  |  |  |  |  |  |
| COc1ccccc1-c1ccn(CC[C@](C)(C(=O)NO)S(C)(=O)=O)c(=O)c1 | 4 µg/mL (≈ 10.1 µM) | 12 nM | 0.125 µg/mL (≈ 0.317 µM) |  |  |  |  |  |  |
| COc1cccc(-c2ccn(CC[C@](C)(C(=O)NO)S(C)(=O)=O)c(=O)c2)c1 | 1 µg/mL (≈ 2.54 µM) | 3.7 nM | 0.03 µg/mL (≈ 0.0761 µM) |  |  |  |  |  |  |
| COc1cccc(-c2ccn(CC[C@](C)(C(=O)NO)S(C)(=O)=O)c(=O)c2)c1F | 0.5 µg/mL (≈ 1.21 µM) | 1.8 nM | 0.015 µg/mL (≈ 0.0364 µM) |  |  |  |  |  |  |
| C[C@@](CCn1ccc(-c2ccc(F)c(F)c2F)cc1=O)(C(=O)NO)S(C)(=O)=O | 0.25 µg/mL (≈ 0.598 µM) | 1.5 nM | 0.015 µg/mL (≈ 0.0359 µM) | > 64 µg/mL | 1 µg/mL (≈ 2.39 µM) | 2 µg/mL (≈ 4.78 µM) | 1 µg/mL (≈ 2.39 µM) | 0.5 µg/mL (≈ 1.2 µM) | 0.5 µg/mL (≈ 1.2 µM) |
| COc1cnc(-c2ccc(-c3ccn(CC[C@](C)(C(=O)NO)S(C)(=O)=O)c(=O)c3)cc2)nc1 | 0.25 µg/mL (≈ 0.529 µM) | 1.2 nM | 0.03 µg/mL (≈ 0.0635 µM) |  |  |  |  |  |  |
| CC(CCc1ncc(-c2ccccc2)cn1)(C(=O)NO)S(C)(=O)=O (racemic) | > 64 µg/mL | > 100 nM | 4 µg/mL (≈ 11.4 µM) |  |  |  |  |  |  |
| CC(CCc1ccc(-c2ccccc2)nc1O)(C(=O)NO)S(C)(=O)=O (racemic) | 32 µg/mL (≈ 87.8 µM) | 53 nM | 1 µg/mL (≈ 2.74 µM) |  |  |  |  |  |  |
| CC(CCn1ccc(C2CCCCC2)cc1=O)(C(=O)NO)S(C)(=O)=O (racemic) | 2 µg/mL (≈ 5.4 µM) | 11 nM | 0.06 µg/mL (≈ 0.162 µM) |  |  |  |  |  |  |
| C[C@H]1[C@H](NC(=O)/C(=N\OC(C)(C)C(=O)O)c2csc(N)n2)C(=O)N1S(=O)(=O)O [AZTREONAM] |  |  |  | 32 µg/mL (≈ 73.5 µM) | 64 µg/mL (≈ 147 µM) | > 64 µg/mL | 32 µg/mL (≈ 73.5 µM) | > 64 µg/mL | > 64 µg/mL |
| O=C(O)c1cn(C2CC2)c2cc(N3CCNCC3)c(F)cc2c1=O [CIPROFLOXACIN] |  |  |  | 64 µg/mL (≈ 193 µM) | 64 µg/mL (≈ 193 µM) | 64 µg/mL (≈ 193 µM) | 1 µg/mL (≈ 3.02 µM) | 32 µg/mL (≈ 96.6 µM) | > 64 µg/mL |

The remaining compounds from weak to strong by MIC (Pseudomonas aeruginosa [1]), led by results:

| MIC (Pseudomonas aeruginosa [1]) | IC50 [2] | MIC (Pseudomonas aeruginosa [3]) | MIC90 (Acinetobacter sp.) | MIC90 (Pseudomonas aeruginosa [4]) | MIC90 (Klebsiella pneumoniae) | MIC90 (Klebsiella aerogenes) | MIC90 (Citrobacter freundii) | MIC90 (Escherichia coli) | Compound |
| --- | --- | --- | --- | --- | --- | --- | --- | --- | --- |
| 64 µg/mL (≈ 163 µM) | > 87 nM | 2 µg/mL (≈ 5.1 µM) |  |  |  |  |  |  | Cc1cccc(C)c1-c1ccn(CC[C@](C)(C(=O)NO)S(C)(=O)=O)c(=O)c1 |
| 8 µg/mL (≈ 23 µM) | 49 nM | 0.25 µg/mL (≈ 0.718 µM) |  |  |  |  |  |  | CC(CCc1ccc(-c2ccccc2)nc1)(C(=O)NO)S(C)(=O)=O (racemic) |
| 4 µg/mL (≈ 11.5 µM) | 13 nM | 0.125 µg/mL (≈ 0.359 µM) |  |  |  |  |  |  | CC(CCc1ccc(-c2ccccc2)cn1)(C(=O)NO)S(C)(=O)=O (racemic) |
| 1 µg/mL (≈ 2.5 µM) | 4.4 nM | 0.03 µg/mL (≈ 0.0749 µM) |  |  |  |  |  |  | C[C@@](CCn1ccc(-c2cc(F)ccc2F)cc1=O)(C(=O)NO)S(C)(=O)=O |
| 0.5 µg/mL (≈ 1.21 µM) | 2 nM | 0.03 µg/mL (≈ 0.0727 µM) |  |  |  |  |  |  | COc1ccc(-c2ccn(CC[C@](C)(C(=O)NO)S(C)(=O)=O)c(=O)c2)cc1F |
| 0.5 µg/mL (≈ 1.13 µM) | 1.3 nM | 0.015 µg/mL (≈ 0.034 µM) |  |  |  |  |  |  | C[C@@](CCn1ccc(-c2ccc(-c3ccccn3)cc2)cc1=O)(C(=O)NO)S(C)(=O)=O |
| 0.5 µg/mL (≈ 1.13 µM) | 1.2 nM | 0.03 µg/mL (≈ 0.0679 µM) |  |  |  |  |  |  | C[C@@](CCn1ccc(-c2ccc(-c3ccncc3)cc2)cc1=O)(C(=O)NO)S(C)(=O)=O |
| 0.25 µg/mL (≈ 0.559 µM) | 1.1 nM | 0.015 µg/mL (≈ 0.0335 µM) |  |  |  |  |  |  | C[C@@](CCn1ccc(-c2ccc(-c3nccs3)cc2)cc1=O)(C(=O)NO)S(C)(=O)=O |
| 0.25 µg/mL (≈ 0.579 µM) | 1.1 nM | 0.015 µg/mL (≈ 0.0348 µM) |  |  |  |  |  |  | C[C@@](CCn1ccc(-c2ccc(-c3ccon3)cc2)cc1=O)(C(=O)NO)S(C)(=O)=O |
| 0.125 µg/mL (≈ 0.317 µM) |  | 0.008 µg/mL (≈ 0.0203 µM) |  |  |  |  |  |  | COc1ccc(-c2ccn(CC[C@](C)(C(=O)NO)S(C)(=O)=O)c(=O)c2)cc1 |
| 0.125 µg/mL (≈ 0.3 µM) | 1 nM | 0.008 µg/mL (≈ 0.0192 µM) | 64 µg/mL (≈ 154 µM) | 1 µg/mL (≈ 2.4 µM) | 1 µg/mL (≈ 2.4 µM) | 0.5 µg/mL (≈ 1.2 µM) | 0.5 µg/mL (≈ 1.2 µM) | 0.125 µg/mL (≈ 0.3 µM) | C[C@@](CCn1ccc(-c2ccc(Cl)cc2F)cc1=O)(C(=O)NO)S(C)(=O)=O |
| 0.125 µg/mL (≈ 0.287 µM) | 0.52 nM | 0.008 µg/mL (≈ 0.0184 µM) | > 64 µg/mL | 0.25 µg/mL (≈ 0.575 µM) | 0.5 µg/mL (≈ 1.15 µM) | 0.25 µg/mL (≈ 0.575 µM) | 0.25 µg/mL (≈ 0.575 µM) | 0.06 µg/mL (≈ 0.138 µM) | C[C@@](CCn1ccc(-c2ccc(Cl)c(F)c2F)cc1=O)(C(=O)NO)S(C)(=O)=O |
| 0.125 µg/mL (≈ 0.302 µM) | 1.2 nM | 0.008 µg/mL (≈ 0.0193 µM) | > 64 µg/mL | 1 µg/mL (≈ 2.41 µM) | 0.5 µg/mL (≈ 1.21 µM) | 0.25 µg/mL (≈ 0.603 µM) | 0.125 µg/mL (≈ 0.302 µM) | 0.06 µg/mL (≈ 0.145 µM) | C[C@@](CCn1ccc(-c2ccc3ccccc3c2)cc1=O)(C(=O)NO)S(C)(=O)=O |

From ChEMBL document CHEMBL2021790, “Pyridone methylsulfone hydroxamate LpxC inhibitors for the treatment of serious gram-negative infections” (J Med Chem, 2012)
